Experimental data taken from patent publication US7208502B2, “Methods of treating conditions associated with an Edg-3 receptor” (Maniv Energy Capital, priority 2002, dated 2007).
Entries after “also recorded” stand apart in the source; their conditions may differ.

Assays:
Adrenergic β = test: Radioligand binding assay, 3H Dihydroaplenolol; design: species or system Wistar rat; details: 10 μM; significance criteria ≧50% of max stimulation or inhibition
Experimental: (§1) In order to test the selectivity of compounds, various enzyme assays as well as radioligand binding assays were performed using numerous non-Edg receptor targets as listed below.
(§2) A radioligand binding assay was performed using adrenergic α1 according to the method of Greengrass and Bremner 1979, Eur. J. Pharmacol. 55:323–326. A radioligand binding assay was performed using adrenergic α2 according to the method of Boyajian and Leslie, 1987, J. Pharmacol. Exp. Ther. 241:1092–1098. A radioligand binding assay was performed using adrenergic β according to the method of Feve et al., 1994, Proc. Natl. Acad. Sci. USA 91:5677–5681. A radioligand binding assay was performed using angiotensin AT2 according to the method of Whitebread et al., 1991, Biochem. Biophys. Res. Comm. 181:1365–1371. A radioligand binding assay was performed using calcium channel Type L, dihydropyridine according to the method of Ehlert et al., 1982, Life Sci. 30:2191–2202. A radioligand binding assay was performed using dopamine D2L according to the method of Bunzo et al., 1988, Nature 336:783–787. A radioligand binding assay was performed using endothelin ETA according to the method of Mihara et al., 1994, J. Phrmacol. Exp Ther. 268:1122–1127. A radioligand binding assay was performed using histamine H1 Central according to the method of Hill et al., 1978, J. Neurochem. 31:997–1004. […]
(§3) Quantitation Method: Radioligand Binding […]

Edg-6 = target: T1, Edg-6 (Homo sapiens, UniProt O95977); test: Intracellular calcium assay, S1P-stimulated, HTC cells expressing Edg-6; assay type: cell-based; details: concentrations as high as 20 µM
T1 construct: expressed in transfected cells; host or cells: HTC rat hepatoma cells
T1 sequence (O95977 1-384): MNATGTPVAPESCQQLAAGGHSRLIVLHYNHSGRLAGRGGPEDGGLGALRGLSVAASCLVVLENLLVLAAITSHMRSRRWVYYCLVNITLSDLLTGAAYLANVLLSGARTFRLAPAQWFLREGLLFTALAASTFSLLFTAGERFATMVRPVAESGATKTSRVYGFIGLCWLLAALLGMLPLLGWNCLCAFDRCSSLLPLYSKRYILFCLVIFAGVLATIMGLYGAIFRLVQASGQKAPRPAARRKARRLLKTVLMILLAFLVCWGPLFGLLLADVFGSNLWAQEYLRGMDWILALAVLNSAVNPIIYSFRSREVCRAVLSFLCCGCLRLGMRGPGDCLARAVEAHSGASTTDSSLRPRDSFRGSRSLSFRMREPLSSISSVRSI

human Edg-3 receptors = target: T2, human Edg-3 receptors (Homo sapiens, UniProt Q99500); test: Intracellular calcium (FLIPR) assay, S1P-stimulated, HTC cells expressing Edg-3; assay type: cell-based; details: HTC cells expressing human Edg-3 receptors; FIG. 1
T2 construct: expressed in transfected cells; host or cells: HTC rat hepatoma cells
Excerpt: Specific assays for Edg-3 receptor activity are known to those of skill in the art. For example, cells expressing Edg-3 receptors can be contacted with a membrane-permeant calcium sensitive dye such as Fluo-4 AM or a proprietary calcium dye loading kit (e.g., FLIPR Calcium Assay kit, Molecular Devices, Sunnyvale, Calif.). Intracellular calcium is capable of binding to the dye and emitting fluorescent radiation when illuminated at the appropriate wavelength. The cells can thus be illuminated an appropriate wavelength for the dye and any emitting light can be captured by a cooled CCD camera. Changes in fluorescence indicate changes in intracellular calcium resulting from the activation of an Edg-3 receptor. Such changes can be measured advantageously in whole cells in “real-time” (Berridge et al., Nature Reviews 2000, 1:11–21). […]
[…] such as Edg-3, couple to calcium effector pathways, and result in increases in intracellular calcium following receptor activation (An, 1998, J. Cell Biochem. Supp 30–31:147–157). This biological response lends itself to a very efficient, high-throughput screen using a Fluorescence Imaging Plate Reader (FLIPR; Molecular Devices, Sunnyvale, Calif.). The FLIPR system is a real-time, cell-based assay system with continuous fluorescence detection using a cooled CCD camera. […]

Edg-1 = target: T3, Edg-1 (Homo sapiens, UniProt P21453); test: Intracellular calcium assay, S1P-stimulated, HTC cells expressing Edg-1; assay type: cell-based; details: concentrations as high as 20 µM
T3 construct: expressed in transfected cells; host or cells: HTC rat hepatoma cells

Dopamine D2L = target: T4, Dopamine D2L (Homo sapiens, UniProt P14416); test: Radioligand binding assay, 3H Spiperone; details: 10 μM; significance criteria ≧50% of max stimulation or inhibition
T4 construct: expressed in transfected cells; host or cells: CHO cells
Experimental: as §1, §2, §3

T2 sequence (Q99500 whole entry): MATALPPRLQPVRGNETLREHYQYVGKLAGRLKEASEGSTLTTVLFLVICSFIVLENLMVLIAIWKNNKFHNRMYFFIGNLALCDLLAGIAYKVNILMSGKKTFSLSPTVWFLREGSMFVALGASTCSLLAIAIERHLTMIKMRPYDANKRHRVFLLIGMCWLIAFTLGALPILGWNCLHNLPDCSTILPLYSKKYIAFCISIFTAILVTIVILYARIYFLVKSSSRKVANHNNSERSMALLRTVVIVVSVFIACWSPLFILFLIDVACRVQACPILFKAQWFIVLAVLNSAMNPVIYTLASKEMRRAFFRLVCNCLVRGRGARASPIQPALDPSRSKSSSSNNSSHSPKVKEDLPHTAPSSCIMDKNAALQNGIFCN
T4 sequence (P14416 whole entry): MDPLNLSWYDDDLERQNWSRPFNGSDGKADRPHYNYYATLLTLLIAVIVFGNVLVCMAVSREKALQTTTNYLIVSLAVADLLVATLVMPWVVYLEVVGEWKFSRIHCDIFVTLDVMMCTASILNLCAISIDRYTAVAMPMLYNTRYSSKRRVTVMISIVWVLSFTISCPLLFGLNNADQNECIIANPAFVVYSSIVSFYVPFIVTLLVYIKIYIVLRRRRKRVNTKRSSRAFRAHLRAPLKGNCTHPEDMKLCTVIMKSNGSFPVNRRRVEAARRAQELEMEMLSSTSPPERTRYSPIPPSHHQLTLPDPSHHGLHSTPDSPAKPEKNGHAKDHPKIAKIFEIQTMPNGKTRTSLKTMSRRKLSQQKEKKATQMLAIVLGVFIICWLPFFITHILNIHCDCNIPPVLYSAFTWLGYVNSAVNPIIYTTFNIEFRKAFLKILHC
T3 sequence (P21453 whole entry): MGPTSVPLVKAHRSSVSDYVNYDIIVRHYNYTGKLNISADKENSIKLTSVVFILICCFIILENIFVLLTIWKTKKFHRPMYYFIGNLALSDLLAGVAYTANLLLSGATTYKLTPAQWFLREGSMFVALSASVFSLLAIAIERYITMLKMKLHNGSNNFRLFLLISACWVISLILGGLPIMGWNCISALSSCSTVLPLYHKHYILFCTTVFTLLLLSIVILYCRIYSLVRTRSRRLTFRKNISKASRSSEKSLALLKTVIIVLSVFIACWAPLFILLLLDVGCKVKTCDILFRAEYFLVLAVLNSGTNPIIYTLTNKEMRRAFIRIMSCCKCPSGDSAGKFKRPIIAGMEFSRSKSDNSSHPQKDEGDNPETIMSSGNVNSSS

## Cc1c(-c2ccccc2)nc2ccccc2c1C(=O)NCc1ccc(F)cc1 [Compound 101, 3-methyl-2-phenyl-quinoline-4-carboxylic acid 4-fluoro-benzylamide]
Adrenergic β
  activity in standard binding assay, Adrenergic β: no activity
Edg-6
  inhibition of S1P-stimulated calcium increases, Edg-6: did not inhibit
Human Edg-3 receptors
  inhibition of Edg-3 stimulated S1P responses (Edg-3 receptors): demonstrate inhibition; also recorded: specifically inhibited
Edg-1
  inhibition of S1P-stimulated calcium increases, Edg-1: did not inhibit
Dopamine D2L
  activity in standard binding assay, Dopamine D2L: no activity
